Test results published in patent US20110160184A1, “Dibenzothiazepine Derivatives and Use Thereof” (ASTRAZENECA AB, priority 2008, published 2011).
Read-outs that look alike come from different tables or passages of the source.

Experiments:
[1] = biological target: T1, dopamine D2s receptor (Homo sapiens, UniProt P14416); test: D2 receptor in vitro functional GTPγS assay (block of dopamine-stimulated [35S]-GTPγS binding); format: biochemical
T1 construct: expressed in transfected cells; membranes used
Protocol: (§1) In vitro experimental assays can generally be carried out as described herein. Briefly, CHO-K1 cells stably transfected with the dopamine D2s receptor can be used in the experiments and maintained in Ham's F12 culture medium supplemented with 2 mM L-glutamine, 10% FBS, and 500 μg/ml Hygromycin.
GTPgS assay can be performed substantially as described by Lazareno, Methods in Molecular Biology, 1999, 106, 231-245. Antagonist activity of compounds can be determined by the ability of test compounds to block dopamine-stimulated [^35S]-GTPγS binding to cell membranes from D2s stably-transfected CHO cells.

[2] = biological target: T1, dopamine D2s receptor; test: D2 receptor binding assay (3H-raclopride displacement, membranes from D2s-transfected CHO cells)
Protocol: as §1
The ability of test compounds to displace ^3H-raclopride at the D2s receptor can be determined on membranes from D2s-transfected CHO cells (Bmax 13 pmol/mg protein). An assay can use a standard 96-well glass-fiber filter plate to retain radioligand bound by the receptor. Retained ^3H can be determined in a TopCount scintillation plate counter following the addition of a liquid scintillant to each well. Compounds can be evaluated for their potency using competition curve analysis, resulting in calculated Ki values.

[3] = biological target: T2, human norepinephrine transporter (Homo sapiens, UniProt P23975); test: Norepinephrine uptake (fluorescent substrate, HEK293F cells); format: cell-based
T2 construct: expressed in transfected cells
Protocol: An assay for measuring norepinephrine uptake can be carried out as described below. Briefly, test compounds can be evaluated in an 11-point IC50 curve for their ability to inhibit uptake of a proprietary fluorescent substrate (dye) from Molecular Devices that mimics biogenic amine neurotransmitters. A stable population of HEK293F cells transfected with the human norepinephrine transporter (cultured in Freestyle 293 expression medium with […] hygromycin B) can be cryopreserved, then plated and used on the day of the assay. Cells can be at 60 K/well; dye can be 7% (final) of the vendor-recommended reconstitution volume (100%). Compounds can be diluted 1:20 in buffer and incubated with the cells for 30 minutes prior to addition of the dye. In this fluorescence intensity assay, plates can be read after a 20 minute dye incubation to determine percent effect with respect to total signal (0.5% DMSO, final) and background signal (10 μM desipramine, final). The IC50, half of the control response, can be converted to Ki using the using the standard Cheng-Prusoff equation.

[4] = biological target: H1 receptor (Homo sapiens, UniProt P35367); test: H1 receptor binding; conditions: read-out: H1 Hu Bind Mean Ki
Source text: H1 Receptor Binding The H1 receptor binding method can be carried out in accordance with De Backer et al., Biochem. Biophys. Res. Commun, 1993, 197(3), 1601.

[5] = test system: D-Amphetamine-induced Hyperlocomotor Activity; test: D-Amphetamine-induced hyperlocomotor activity (LMA) in habituated rat model; format: in vivo, male Long Evans rats; conditions: D-amphetamine 1 mg/kg s.c.
Protocol: Studies in vivo can be used to determine the antipsychotic effect and are generally carried out as follows. Briefly, D-Amphetamine-induced Hyperlocomotor Activity (LMA) in a Habituated Rat Model can be assessed in male Long Evans rats using a paradigm that includes a habituation phase followed by administration of 1 mg/kg D-amphetamine. Animals can be allowed to acclimatize to the testing room for 1 hour before being weighed and placed into activity chambers. Thirty minutes after LMA measurement is begun, animals can be briefly removed, dosed via the sub-cutaneous route (s.c.) with vehicle or test drug at different doses and returned to the chambers. After a further 30 minutes, animals can again be removed and dosed with vehicle or D-amphetamine at 1 mg/kg (s.c.). After returning the animals to the activity chambers, LMA can be assessed for a further 60 minutes. Haloperidol (0.1 mg/kg dissolved in H2O) can be administered 15 minutes prior to D-amphetamine via the s.c. route. Statistical analysis can be made of total distance traveled after D-amphetamine administration using ANOVA and Tukey's post hoc analysis where appropriate. All values can be expressed as Mean and SD.

[6] = test system: Conditioned Avoidance Responding; test: Conditioned avoidance responding (CAR) assay; format: in vivo, Male Long-Evans rats; conditions: rat
Protocol: Male Long-Evans rats can be trained to traverse to the opposite side of a standard shuttle cage following presentation of an auditory and visual stimulus to avoid delivery of electric shock to the floor of the cage. Daily sessions can consist of up to 80 trials. If a shock is delivered, animals have the opportunity to escape the shock by traversing to the opposite side of the cage. Drug can be administered (via s.c. or p.o. route) 60 minutes prior to testing and the percentage of trials in which shock is avoided and escaped can be recorded.

[7] = antagonist mode, read-out: D2 Ant GTPγS IC50
[8] = w/NaCl, read-out: D2 binding w/NaCl Ki
[9] = HEK cells, fluorescence intensity, read-out: hNET uptake HEK FLInt CR Mean Ki

T2 sequence (P23975 whole entry): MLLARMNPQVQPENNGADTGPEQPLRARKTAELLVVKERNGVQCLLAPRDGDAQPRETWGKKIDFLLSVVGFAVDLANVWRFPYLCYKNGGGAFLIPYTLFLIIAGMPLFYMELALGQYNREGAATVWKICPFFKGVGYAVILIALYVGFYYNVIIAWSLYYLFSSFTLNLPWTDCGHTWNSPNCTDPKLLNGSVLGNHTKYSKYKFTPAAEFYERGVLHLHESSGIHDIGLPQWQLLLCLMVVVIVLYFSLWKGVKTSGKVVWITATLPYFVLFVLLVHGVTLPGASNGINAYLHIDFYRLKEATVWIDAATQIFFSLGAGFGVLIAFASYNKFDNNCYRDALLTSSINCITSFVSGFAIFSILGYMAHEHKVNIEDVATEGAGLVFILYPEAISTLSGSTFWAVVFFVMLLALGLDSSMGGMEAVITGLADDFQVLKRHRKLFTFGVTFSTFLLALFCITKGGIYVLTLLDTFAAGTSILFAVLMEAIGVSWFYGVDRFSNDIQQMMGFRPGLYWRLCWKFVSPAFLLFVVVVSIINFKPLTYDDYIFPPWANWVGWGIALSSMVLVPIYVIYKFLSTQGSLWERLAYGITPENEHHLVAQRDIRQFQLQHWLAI
T1 sequence (P14416 1-414 isoform P14416-2): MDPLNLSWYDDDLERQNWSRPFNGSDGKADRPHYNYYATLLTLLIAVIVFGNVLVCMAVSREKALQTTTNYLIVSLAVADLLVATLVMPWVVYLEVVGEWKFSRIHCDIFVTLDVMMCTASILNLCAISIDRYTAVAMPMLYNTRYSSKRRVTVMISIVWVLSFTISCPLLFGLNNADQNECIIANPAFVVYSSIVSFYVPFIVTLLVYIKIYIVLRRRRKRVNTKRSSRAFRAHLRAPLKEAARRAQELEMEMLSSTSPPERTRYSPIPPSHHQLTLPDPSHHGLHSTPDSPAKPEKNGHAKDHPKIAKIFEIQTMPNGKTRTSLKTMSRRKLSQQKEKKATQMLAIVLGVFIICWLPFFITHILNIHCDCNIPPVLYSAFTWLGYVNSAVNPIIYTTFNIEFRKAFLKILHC
H1 receptor, sequence (P35367 whole entry): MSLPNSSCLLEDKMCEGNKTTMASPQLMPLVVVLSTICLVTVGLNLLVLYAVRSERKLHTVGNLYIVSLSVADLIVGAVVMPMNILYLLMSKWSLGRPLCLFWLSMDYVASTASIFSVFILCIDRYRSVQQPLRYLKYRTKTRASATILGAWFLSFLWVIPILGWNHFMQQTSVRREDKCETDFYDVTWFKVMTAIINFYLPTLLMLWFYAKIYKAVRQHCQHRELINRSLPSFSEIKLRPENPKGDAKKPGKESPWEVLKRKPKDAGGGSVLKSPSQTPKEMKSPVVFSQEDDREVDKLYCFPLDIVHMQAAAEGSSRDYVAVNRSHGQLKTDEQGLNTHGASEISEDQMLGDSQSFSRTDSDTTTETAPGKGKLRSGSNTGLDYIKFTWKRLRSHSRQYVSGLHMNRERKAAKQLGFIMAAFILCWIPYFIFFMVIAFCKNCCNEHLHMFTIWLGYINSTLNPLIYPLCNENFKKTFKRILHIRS

| IC50 [1, 7] [nM] | Ki [2, 8] [nM] | Ki [3, 9] [nM] | Ki [4] [nM] | IC50 ([1]; antagonist, dopamine-stimulated [35S]-GTPγS binding, D2s CHO membranes, one average result, read-out: GTPγS IC50) [nM] | Ki ([3]; HEK293F cells with human NET, Cheng-Prusoff from IC50, one average result, read-out: NET inhibition Ki) [nM] | Ki ([2]; 3H-raclopride, D2s-transfected CHO cell membranes, one average result, read-out: D2 binding Ki) [nM] | SMILES | activity in D-amphetamine-induced LMA ([5]; 30 mg/kg (sc)) | activity in D-amphetamine-induced LMA ([5]; 60 mg/kg (sc)) | activity in conditioned avoidance responding ([6]; 30 mg/kg (sc)) | activity in conditioned avoidance responding ([6]; 60 mg/kg (sc)) |
| --- | --- | --- | --- | --- | --- | --- | --- | --- | --- | --- | --- |
| 8.4 | 0.49 | – | – | – | – | – | CN1CCN(C2=Nc3ccccc3Sc3ccc(Cl)cc32)CC1 [2-Chloro-11-(4-methyl-piperazin-1-yl)-dibenzo[b,f][1,4]thiazepine] | – | – | – | – |
| 35 | 0.7 | 41 | 3.87 | – | – | – | Clc1ccc2c(c1)C(N1CCNCC1)=Nc1ccccc1S2 [2-Chloro-11-piperazin-1-yl-dibenzo[b,f][1,4]thiazepine] | – | – | – | – |
| 170 | 1.1 | 59 | 1.82 | – | – | – | CN1CCN(C2=Nc3ccccc3Sc3ccc(F)cc32)CC1 [2-Fluoro-11-(4-methyl-piperazin-1-yl)-dibenzo[b,f][1,4]thiazepine] | – | – | – | – |
| 400 | 11 | 9.6 | – | ~404 | ~10 | ~11 | Fc1ccc2c(c1)C(N1CCNCC1)=Nc1ccccc1S2 [Example 1, 2-fluoro-11-(piperazin-1-yl)dibenzo[b,f][1,4]thiazepine] | showed activity | showed activity | showed activity | showed activity |

| SMILES | IC50 [1, 7] [nM] | Ki [2, 8] [nM] | Ki [3, 9] [nM] | Ki [4] [nM] | IC50 ([1]; antagonist, dopamine-stimulated [35S]-GTPγS binding, D2s CHO membranes, one average result, read-out: GTPγS IC50) [nM] | Ki ([3]; HEK293F cells with human NET, Cheng-Prusoff from IC50, one average result, read-out: NET inhibition Ki) [nM] | Ki ([2]; 3H-raclopride, D2s-transfected CHO cell membranes, one average result, read-out: D2 binding Ki) [nM] | activity in D-amphetamine-induced LMA ([5]; 30 mg/kg (sc)) | activity in D-amphetamine-induced LMA ([5]; 60 mg/kg (sc)) | activity in conditioned avoidance responding ([6]; 30 mg/kg (sc)) | activity in conditioned avoidance responding ([6]; 60 mg/kg (sc)) |
| --- | --- | --- | --- | --- | --- | --- | --- | --- | --- | --- | --- |
| c1ccc2c(c1)N=C(N1CCNCC1)c1ccccc1S2 [11-Piperazin-1-yl-dibenzo[b,f][1,4]thiazepine] | 800 | 37 | 24 | 3.33 | – | – | – | – | – | – | – |
